Measured values as given in patent US10052336B2, “Pulmonary interstitial pneumonia treatment” (priority 2012, dated 2018).

Legend:
[1] = system: non-specific interstitial pneumonitis (NSIP); test: Inventor's own treatment course for non-specific interstitial pneumonitis, tracked by CRP level and symptoms; assay type: in vivo, human; conditions: tapered-down doses of prednisone from 30-40 mg/day
Description: NSIP is a sub-type of Idiopathic Pulmonary Fibrosis (IPF), comprising a group of interstitial pneumonias. […] Following the NSIP diagnosis, my tapered prednisone treatments were supplemented with 100 mg/day azathioprine and, subsequently, with 1800 mg/day N-Acetyl Cysteine (NAC).

[2] = system: idiopathic pulmonary fibrosis; conditions: as compared with placebo; Martinez F. J. et al., N Engl J Med 2014; cited from earlier work

Structure (SMILES)	symptoms (dry cough, dyspnea, fever) [1]	systemic inflammation as measured by CRP level ([1]; eventually approaching and exceeding levels in the teens of mg/l)	preservation of FVC [i.e., lung capacity] [2]
C[C@]12C=CC(=O)C=C1CC[C@@H]1[C@@H]2C(=O)C[C@@]2(C)[C@H]1CC[C@]2(O)C(=O)CO [prednisone]	continued symptoms to worsen	continued to worsen	
CC(=O)N[C@@H](CS)C(=O)O [acetylcysteine, N-Acetyl Cysteine]			no significant benefit
